Patent US9109001B2, “3′,5′-cyclic phosphoramidate prodrugs for HCV infection” (priority 2012, dated 2015)

Experiments:
Stability in mouse blood = assay type: in vitro ADME; settings: on ice, percent unchanged test compound
Description: Stability in Fresh Whole Blood: Stability of test compounds were determined in fresh human whole blood with K2EDTA as the anticoagulant (stored refrigerated at 2-8° C. and used within 7 days of receipt). The experiment was conducted with three replicates for each time point. Whole blood, pre-incubated at 37° C. for 10-15 minutes, was fortified with a solution of test compound for a final concentration of 0.5 μM and mixed for 30 sec. At intervals (0, 0.5, 1 and 2 hr), three 50-μL aliquots were combined with 200 μL (each) of an ice-cold solution of the internal standard (carbutamide 500 ng/mL in acetonitrile). The samples were vortexed for 30 sec and then centrifuged at 16,100 g for 5 min. The supernatant was analyzed by LC-MS/MS. The MS peak area ratio of the test compound versus the internal standard was calculated and percent unchanged test compound was calculated for each time point using this ratio.
The stability in mouse blood was determined on ice at 0, 0.5 and 1 hr as above.

[1] = Stability in human intestinal microsomes; assay type: in vitro ADME; settings: 10 μM, 1.0 mg/mL protein, NADPH, 60 min; percent unchanged
Description: (§1) Stability in Liver and Intestinal Subcellular Fractions: Stability of test compounds were determined in subcellular fractions (microsomes and S9) of human liver and intestine in duplicate for each matrix. Pooled liver and intestinal microsomal, intestinal and liver S9 proteins (1.0 mg/mL), suspended in incubation buffer (100 mM potassium phosphate, pH 7.4, 5 mM MgCl2, and 0.1 mM EDTA), were preincubated for 5 min at 37° C. with 10 μM of a test compound from a 10 mM stock solution in DMSO (final DMSO concentration was 0.1%); the reaction was initiated by the addition of NADPH (3 mM final concentration). At specific times (0 and 60 min), 0.1 mL samples were taken and the reaction terminated by the addition of 4 volumes of stop solution (acetonitrile with 500 ng/mL carbutamide as an internal standard). The samples were vortexed for 30 sec and then centrifuged at 16,000 g for 10 min. 100 μL of supernatants were transferred to 96 deep-well plates preloaded with 100 μL distilled water and analyzed after mixing by LC-MS/MS. The MS peak area ratio of the test compound versus the internal standard was calculated and percent unchanged test compound over 60 minutes was calculated using this ratio.

[2] = Stability in human liver microsomes; assay type: in vitro ADME; settings: 10 μM, 1.0 mg/mL protein, NADPH, 60 min; percent unchanged
Description: as §1

mouse hepatocytes = experiment: Release of active metabolite in mouse hepatocytes; assay type: in vitro ADME; settings: 10 μM
Description: (§2) Assay for the Release of Active Metabolite in Primary Hepatocytes: Plates of fresh human and mouse hepatocytes were obtained on ice. The medium was removed and replaced with hepatocyte culture medium (William's E supplemented with penicillin-streptomycin, 1% L-glutamine, 1% insulin-transferrin-selenium and 0.1 μM Dexamethasone (Invitrogen) or with Invitro GRO HI medium complemented with Torpedo antibiotics (Celsis)). Cells were left overnight in an incubator at 37° C. to acclimatize to culture and the medium.
(§3) Hepatocyte incubations were conducted at a final volume of 0.5 mL hepatocyte culture medium/well (0.8 million cells/well for human and 0.5 million cells/well for mouse; 12 well plate no overlay, collagen coat). Culture medium from overnight incubation of cells was removed and replaced with fresh medium, pre-warmed to 37° C., containing 10 μM of test compound from a stock solution in DMSO (final DMSO concentration was 0.1%). At each specific time point, incubation medium was removed and cell monolayers were carefully washed two times with ice-cold PBS. Following the last wash, all PBS was carefully removed and 1.0 mL of extraction solution (ice-cold 70% methanol/30% water) added. Cells were scraped off and suspended in the extraction solution, transferred to 2 mL polypropylene microfuge tubes and intracellular contents extracted overnight at −20° C.
(§4) After the overnight treatment the cellular extracts were prepared by centrifugation at 16,000×g for 10 min to remove cellular debris. The remaining sample was then dried using a refrigerated centrivap concentrator. Dry extracts were reconstituted in 1000 μL of HPLC-grade water and centrifuged at 16,000×g for 10 min. Aliquots (100 μL each) of the supernatant were transferred into a 96 well plate and internal standard (4 ng/mL final concentration) was added as the internal standard (IS) for LC-MS/MS analysis.
(§5) The incubation time points were 6, 24 and 48 hours for human hepatocytes and 1, 4, 8, 12 and 24 hours for mouse hepatocytes.

fresh human hepatocytes = experiment: Release of active metabolite in fresh human hepatocytes; assay type: in vitro ADME; settings: 10 μM
Description: as §2, §3, §4, §5

[3] = Cytotoxicity evaluation (CellTiter-Blue Cell Viability Assay); assay type: cell-based, human; settings: human, Zluc cells, read-out: HCV Replicon CC50
Huh-7 cells = experiment: Release of active metabolite in Huh-7 cells; assay type: in vitro ADME, human; settings: 10 μM test compound
Description: Assay for the Release of Active Metabolite in Huh-7 Cells. Huh-7 cells were plated in 1 mL culture medium (DMEM, containing glucose, L-glutamine and sodium pyruvate, 10% FBS, 100 IU/mL penicillin, 100 μg/mL streptomycin, 2 mM GlutaMAX, 1% MEM non-essential amino acids) at the concentration 0.8, 0.4 and 0.2 million cells per well on 6 well plates for 24, 48 and 72 hr treatment, respectively. Plated cells were incubated overnight at 37° C. in an incubator.
The following morning test compound was diluted to 20 μM from a stock solution in DMSO in fresh culture medium pre-warmed to 37° C. and 1 mL of the solution/well was added to cells. A final medium volume per well was 2.0 mL, test compound concentration in well was 10 μM and final DMSO concentration was 0.1%.
After 24, 48 or 72 hr, the medium was carefully removed and cell monolayers were washed twice with 2 mL ice-cold PBS per well. Following the last wash, all PBS was carefully removed and 1.0 mL of extraction solution (ice-cold 70% methanol) added. The plate was tightly covered with Parafilm, plastic plate cover and Parafilm again and an intracellular content was extracted at −20° C. for 24 hr.
After 24 hr extracts were transferred into polypropylene microfuge tubes and dry on a refrigerated centrivap concentrator. Dry residues were reconstituted in 250 μL of HPLC-grade water and centrifuged at 16,000×g for 10 min. Aliquots (100 μL each) of the supernatants were transferred into a 96 well plate and internal standard (4 ng/mL final concentration) was added as the internal standard (IS) for LC-MS/MS analysis.

Zluc cells = experiment: Cytotoxicity evaluation (CellTiter-Blue Cell Viability Assay); assay type: cell-based, human; settings: read-out: HCV Replicon CC50

CCOc1nc(N)nc2c1ncn2[C@@H]1O[C@@H]2COP(=O)(N[C@@H](C)C(=O)OC(C)C)O[C@H]2[C@@]1(C)F (single isomer, unassigned) [Compound 1 Diastereomer 1]
Stability WB_Mouse (ice; 1 hr) (Stability in mouse blood): 92%
Stability HIM (1 hr) [1]: 70%
Stability HLM (1 hr) [2]: 11%
MsH AUC (pmol · hr/mill cells) (mouse hepatocytes): 4700 pmol · hr/mill cells
MsH Cmax (pmol/mill cells) (mouse hepatocytes): 2296 pmol/mill cells
FHH TP AUC (pmol · hr/mill cells) (fresh human hepatocytes): 9842 pmol · hr/mill cells
FHH TP Cmax (pmol/mill cells) (fresh human hepatocytes): 687 pmol/mill cells
FHH TP (24 hr) (fresh human hepatocytes; 24 hr): BLD^a
CC50 [3]: > 50 µM
Huh-7 TP Cmax (pmol/mill cells) (Huh-7 cells): 283 pmol/mill cells

CCOc1nc(N)nc2c1ncn2[C@@H]1O[C@@H]2COP(=O)(N[C@@H](C)C(=O)OC(C)C)O[C@H]2[C@@]1(C)F (single isomer, unassigned) [Compound 1 Diastereomer 2]
Stability WB_Mouse (ice; 1 hr) (Stability in mouse blood): 36%
Stability HIM (1 hr) [1]: 98%
Stability HLM (1 hr) [2]: 52%
MsH AUC (pmol · hr/mill cells) (mouse hepatocytes): 1451 pmol · hr/mill cells
MsH Cmax (pmol/mill cells) (mouse hepatocytes): 884 pmol/mill cells
FHH TP AUC (pmol · hr/mill cells) (fresh human hepatocytes): 5774 pmol · hr/mill cells
FHH TP Cmax (pmol/mill cells) (fresh human hepatocytes): 309 pmol/mill cells
FHH TP (48 hr) (fresh human hepatocytes; 48 hr): BLD^a
CC50 (Zluc cells): > 50 µM
